The values below come from patent US20250074943A1, “DLL3 BINDING PEPTIDES AND USES THEREOF” (AMGEN INC., priority 2021, published 2025).

Like-named read-outs stand apart in the source and are kept apart here. Numbered stars: 1 amine (or outer) side, 2 acyl side, 3 side chain; on linkers, the order of the positions; unused ones are H or OH. Bridge positions count the residues as written; N and C are the ends. Primed or numbered codes have the meaning given here. Peptide text beside a SMILES is read from it. I, II: the chains in the order shown. * marks the point of attachment. X8 = NC(=O)[C@H](CCCCNC(=O)CCOCCOCCOCCOCCNC(=O)CCOCCOCCOCCN(CCOCCOCCOCCC(=O)NCCOCCOCCOCCOCCC(=O)NCCCC[C@H](NC(=O)CCC(=O)NCCCOCCOCCOCCCN[*:2])C(N)=O)C(=O)CNC(=O)CCOCCOCCOCCOCCNC(=O)CCC(=O)N1Cc2ccccc2C#Cc2ccccc21)NC(=O)CCC(=O)NCCCOCCOCCOCCCN[*:1]; X15 = NC(=O)[C@H](CCCCNC(=O)CCOCCOCCOCCN(CCOCCOCCOCCC(=O)NCCCC[C@H](NC(=O)CCC(=O)NCCCOCCOCCOCCCN[*:2])C(N)=O)C(=O)CNC(=O)CCOCCOCCOCCOCCNC(=O)CCC(=O)N1Cc2ccccc2C#Cc2ccccc21)NC(=O)CCC(=O)NCCCOCCOCCOCCCN[*:1]; X1 = NC(=O)[C@H](CCCCNC(=O)CCOCCOCCOCCOCCNC(=O)CCC(=O)N1Cc2ccccc2C#Cc2ccccc21)NC(=O)CCC(=O)NCCCOCCOCCOCCCN*; K(PEG4-DBCO-FEA) = Lys whose side chain carries PEG4-DBCO conjugated to fluoroethylazide (FEA); Ttds(4) = trioxatridecan-succinamic acid (linker), O=C(CCC(=O)[*:2])NCCCOCCOCCOCCCN[*:1]; Ttds(3) = Trioxatridecan-succinamic acid linker, O=C(CCC(=O)[*:2])NCCCOCCOCCOCCCN[*:1]

Experiment [1] has as its target T1, recombinant DLL3 ectodomain (rhDLL3-Fc) (Homo sapiens, UniProt Q9NYJ7).
T1 construct: The recombinant DLL3 ectodomain (rhDLL3-Fc) was biotinylated; Fc
T1 sequence (Q9NYJ7 27-492 limits assumed): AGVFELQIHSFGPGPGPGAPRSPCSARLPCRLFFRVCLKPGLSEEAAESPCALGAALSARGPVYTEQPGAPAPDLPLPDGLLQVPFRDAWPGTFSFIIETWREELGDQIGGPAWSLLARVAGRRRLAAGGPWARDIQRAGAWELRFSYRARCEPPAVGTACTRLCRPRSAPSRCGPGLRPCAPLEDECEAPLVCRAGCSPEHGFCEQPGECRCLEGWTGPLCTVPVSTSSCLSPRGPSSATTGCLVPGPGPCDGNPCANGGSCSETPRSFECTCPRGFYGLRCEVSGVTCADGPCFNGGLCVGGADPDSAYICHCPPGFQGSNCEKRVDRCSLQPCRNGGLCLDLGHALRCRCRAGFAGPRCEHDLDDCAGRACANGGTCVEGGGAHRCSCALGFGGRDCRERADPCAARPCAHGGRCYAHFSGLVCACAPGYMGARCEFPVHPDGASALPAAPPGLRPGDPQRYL
The experiment is described as follows: Binding kinetic assay using Bio-layer interferometry (BLI). The settings on record: for binding mode to DLL3: peptides at 20, 4 and 0.8 μM, fit to 1:1 Langmuir binding model; for affinity: wider dose-response 10×KD to 0.1×KD. As to the method:
Binding kinetic assays were performed using Bio-layer interferometry (BLI) technology. The recombinant DLL3 ectodomain (rhDLL3-Fc) was biotinylated using EZ-Link Sulfo-NHS-LC-LC-Biotin Kit according to the manufacturer's protocol (Pierce by Thermo Fisher Scientific). The recombinant protein was incubated with an excess of NHS-LC-LC Biotin ester, in a molar ratio of 1:3 (protein: biotin), at 25° C. for 90 min. The un-reacted biotin ester was removed by subsequent buffer exchange on 0.5 ml Zeba spin desalting columns 7K MWCO (Pierce by Thermo Fisher Scientific).

The next experiment concerns the target T2, rhDLL3-Fc (Homo sapiens, UniProt Q9NYJ7).
T2 construct: The recombinant DLL3 ectodomain (rhDLL3-Fc) was biotinylated; Fc
T2 sequence (Q9NYJ7 27-492 limits assumed): T1 sequence (Q9NYJ7 27-492 limits assumed)
The experiment is described as follows: SPR binding / off-rate screening (Biacore T200). As to conditions: for binding to rhDLL3-Fc, complex half-life: single point SPR. As to the method: […] The recombinant DLL3 ectodomain (rhDLL3-Fc) was biotinylated using EZ-Link Sulfo-NHS-LC-LC-Biotin Kit according to the manufacturer's protocol (Pierce by Thermo Fisher Scientific). The recombinant protein was incubated with an excess of NHS-LC-LC Biotin ester, in a molar ratio of 1:3 (protein: biotin), at 25° C. for 90 min. The un-reacted biotin ester was removed by subsequent buffer exchange on 0.5 ml Zeba spin desalting columns 7K MWCO (Pierce by Thermo Fisher Scientific).
The off-rate screening of the peptides was done using a Biacore T200 instrument (Cytiva, Sweden). […] Sensorgrams were analyzed by Biacore T200 Evaluation Software 3.0 (Cytiva, Sweden): specific binding was obtained by subtracting unspecific binding to naked biosensors and a zero analyte concentration made of binding assay buffer (double referencing). […]

Setting [2] is: Table 4, ± values from three independent experiments, read-out: RT (residence time) (converted).
The mark [3] stands for this setting: range over the seven peptides, read-out: residence time.
The mark [4] stands for this setting: Table 8, curve fitting of SPR sensorgrams, read-out: koff.
The mark [5] stands for this setting: Table 8, curve fitting of SPR sensorgrams, read-out: kon.

For the compound `CC(C)[C@H](NC(=O)[C@@H](NC(=O)[C@H](CCC(=O)O)NC(=O)[C@H](C)N)[C@@H](C)O)C(=O)N[C@@H](CCC(=O)O)C(=O)N[C@@H](Cc1ccccc1)C(=O)N[C@@H](Cc1c[nH]c2ccccc12)C(=O)N[C@@H](Cc1c[nH]c2ccccc12)C(=O)N[C@H]1CSSC[C@@H](C(=O)N[C@H](C(=O)N[C@@H](Cc2c[nH]c3ccccc23)C(N)=O)[C@@H](C)O)NC(=O)[C@H]([C@@H](C)O)NC(=O)[C@H](Cc2c[nH]c3ccccc23)NC(=O)[C@H](CC(N)=O)NC(=O)[C@H](CCC(=O)O)NC(=O)[C@H](CO)NC(=O)[C@H](CC(N)=O)NC(=O)CNC(=O)[C@H](CC(N)=O)NC1=O` [PepSP1171], the Kd in experiment [1] (Table 4, global fitting 1:1 Langmuir, koff vs kon ratio, ± values from three independent experiments) stood at 0.07 ± 0.019 µM; at rhDLL3-Fc (Table 8, curve fitting of SPR sensorgrams), 0.07 µM. Further, the residence time in experiment [1] (setting [2]) was 1.83 min; in experiment [1] (setting [3]), 1 to 3 min. Further, the “binding mode to DLL3” value in experiment [1] is “dose-response saturable binding”. Besides, the affinity entry in experiment [1] was “double-digit nM range”. The koff at rhDLL3-Fc (setting [4]) was found to be 0.0097 s⁻¹. Moreover, the kon on rhDLL3-Fc (setting [5]) turned out to be 140000 M⁻¹ s⁻¹.
For `CC(C)[C@H](NC(=O)[C@@H](NC(=O)[C@H](CCC(=O)O)NC(=O)[C@H](C)N)[C@@H](C)O)C(=O)N[C@@H](CCC(=O)O)C(=O)N[C@@H](Cc1ccccc1)C(=O)N[C@@H](Cc1c[nH]c2ccccc12)C(=O)N[C@@H](CO)C(=O)N[C@H]1CSSC[C@@H](C(=O)NCC(=O)N[C@@H](Cc2c[nH]c3ccccc23)C(N)=O)NC(=O)[C@H](CO)NC(=O)[C@H](Cc2ccc(O)cc2)NC(=O)[C@H]([C@@H](C)O)NC(=O)[C@H](Cc2ccc(O)cc2)NC(=O)[C@H](CCC(=O)O)NC(=O)[C@H](CC(=O)O)NC(=O)[C@H](C)NC(=O)[C@H](C)NC(=O)CNC(=O)CNC(=O)[C@H](Cc2c[nH]c3ccccc23)NC(=O)[C@H](Cc2c[nH]c3ccccc23)NC(=O)[C@H](CCCCN)NC1=O` [PepSP1182] (H-AETVEFWSCKWWGGAADEYTYSCGW-NH2; disulfide 9-23; N-terminus assumed), the residence time in experiment [1] (setting [2]) is 1.61 min. In addition, in experiment [1], the “binding mode to DLL3” value is “dose-response saturable binding” and the affinity result was “double-digit nM range”. Further, in experiment [1] (setting [3]), the residence time lay in the range of 1 to 3 min.
With `C[C@@H](O)[C@@H]1NC(=O)CNC(=O)[C@H]([C@@H](C)O)NC(=O)[C@@H](NC(=O)CNC(=O)[C@@H](N)Cc2c[nH]c3ccccc23)CSSC[C@@H](C(=O)N[C@@H](Cc2c[nH]c3ccccc23)C(=O)N[C@@H](Cc2c[nH]c3ccccc23)C(N)=O)NC(=O)[C@H]([C@@H](C)O)NC(=O)[C@H](CCC(=O)O)NC(=O)[C@H](CC(N)=O)NC(=O)CNC(=O)[C@H](Cc2c[nH]c3ccccc23)NC1=O` [PepSP1213] (H-WGCTGTWGNETCWW-NH2; disulfide 3-12; N-terminus assumed), in experiment [1] (setting [2]), the residence time is 0.0227 min.
The same measure, in the same setting: the figure for `C[C@@H](O)[C@H](NC(=O)[C@@H]1CSSC[C@H](NC(=O)[C@H](CC(=O)O)NC(=O)[C@@H](N)Cc2c[nH]c3ccccc23)C(=O)N[C@@H](Cc2c[nH]c3ccccc23)C(=O)NCC(=O)N[C@@H](CC(N)=O)C(=O)N[C@@H]([C@@H](C)O)C(=O)N[C@@H](CC(=O)O)C(=O)N[C@@H](CC(=O)O)C(=O)N[C@@H](Cc2c[nH]c3ccccc23)C(=O)N[C@@H]([C@@H](C)O)C(=O)N1)C(=O)N[C@@H](Cc1c[nH]c2ccccc12)C(N)=O` [PepSP1269] (H-WDCWGNTDDWTCTW-NH2; disulfide 3-12; N-terminus assumed) is 0.333 min.
`CC(=O)N[C@@H](C)C(=O)N[C@@H](CCC(=O)O)C(=O)N[C@H](C(=O)N[C@H](C(=O)N[C@@H](CCC(=O)O)C(=O)N[C@@H](Cc1ccccc1)C(=O)N[C@@H](Cc1c[nH]c2ccccc12)C(=O)N[C@@H](Cc1c[nH]c2ccccc12)C(=O)N[C@H]1CSSC[C@@H](C(=O)N[C@H](C(=O)N[C@@H](Cc2c[nH]c3ccccc23)C(=O)NCC(=O)NCC(=O)NCCCOCCOCCOCCCNC(=O)CCC(=O)N[C@@H](CCCCNC(=O)CCOCCOCCOCCOCCNC(=O)CCC(=O)N2Cc3ccccc3C#Cc3ccccc32)C(N)=O)[C@@H](C)O)NC(=O)[C@H]([C@@H](C)O)NC(=O)[C@H](Cc2c[nH]c3ccccc23)NC(=O)[C@H](CC(N)=O)NC(=O)[C@H](CCC(=O)O)NC(=O)[C@H](CO)NC(=O)[C@H](CC(N)=O)NC(=O)CNC(=O)[C@H](CC(N)=O)NC1=O)C(C)C)[C@@H](C)O` [PepSP1462] (Ac-AETVEFWWCNGNSENWTCTWGG-X1; disulfide 9-18 (inferred)): at rhDLL3-Fc, the koff amounted to 0.0014 s⁻¹ and the kon came to 230000 M⁻¹ s⁻¹.
As to `CCCCOCCOCCOCCC(=O)CCCCCCCCCCCCCCCC(=O)CCC(=O)NCCCOCCOCCOCCCNC(=O)CCC(=O)CCCCC[C@@H](CC(=O)CCC(=O)NCCCOCCOCCOCCCNC(=O)CNC(=O)CNC(=O)[C@@H](Cc1c[nH]c2ccccc12)NC(=O)[C@H](CC(=O)[C@H]1CCCC[C@@H](CN[C@@H](Cc2c[nH]c3ccccc23)NC(=O)[C@@H](Cc2c[nH]c3ccccc23)NC(=O)[C@H](CC(=O)[C@@H](CCC(=O)O)CC(=O)[C@H](CC(=O)[C@](C)(NC(=O)[C@@H](CCC(C)=O)CC(=O)CCC(C)=O)C(C)C)C(C)C)Cc2ccccc2)C(=O)C[C@H](CC(C)=O)C(=O)NCC(=O)NC(CC(C)=O)C(=O)C[C@H](CC)C(=O)NC(CCC(C)=O)C(=O)C[C@H](CC(C)=O)C(=O)CC(Cc2c[nH]c3ccccc23)C(=O)C[C@H]([C@H](C)O)C(=O)C1)[C@H](C)O)C(C)=O` (some centres unmarked) [PepSP1489], the koff on rhDLL3-Fc (setting [4]) worked out at 0.00037 s⁻¹. At rhDLL3-Fc (setting [5]), the kon is 110000 M⁻¹ s⁻¹.
Regarding “Ac-AETVEFWWCNGNSENWTCTW-GG-Ttds-K(PEG4-DBCO-FEA)-NH2 (Ac-AETVEFWWCNGNSENWTCTWGG-{Ttds(3)-K(PEG4-DBCO-FEA)-NH2}; cysteine pairing not given here) [PepSP1538]”, the “binding to rhDLL3-Fc, complex half-life” value with rhDLL3-Fc is reported as “tight rhDLL3-Fc binders with a stable complex half-life”.
Turning to “I: Ac-AETVEFWWCNGNSENWTCTWGG / II: Ac-AETVEFWWCNGNSENWTCTWGG (disulfide I:9-I:18, II:9-II:18; linker I:C-II:C via X8) [PepSP1488]”, on rhDLL3-Fc (setting [4]), the koff worked out at 0.00031 s⁻¹. Besides, the kon at rhDLL3-Fc (setting [5]) came to 120000 M⁻¹ s⁻¹.
The corresponding values for “I: Ac-AETVEFWWCNGNSENWTCTWGG / II: Ac-AETVEFWWCNGNSENWTCTWGG (disulfide I:9-I:18, II:9-II:18; linker I:C-II:C via X15) [PepSP1487]” are 0.00042 s⁻¹ and 76000 M⁻¹ s⁻¹.
Regarding “[Ac-AETVEFWWCNGNSENWTCTW-GG-Ttds-K(PEG3)]2-PEG4-DBCO-FEA (Ac-AETVEFWWCNGNSENWTCTWGG-{Ttds(4)-K(PEG3)}; not fully specified (bridges); printed as [Ac-AETVEFWWCNGNSENWTCTW-GG-Ttds-K(PEG3)]2-PEG4-DBCO-FEA; cysteine pairing not given here; also: dimer linked via PEG4-DBCO-FEA) [PepSP1581]”, the “binding to rhDLL3-Fc, complex half-life” value with rhDLL3-Fc was “tight rhDLL3-Fc binders with a stable complex half-life”.
Still for that read-out and setting: in the case of “[Ac-AETVEFWWCNGNSENWTCTW-GG-Ttds-K(PEG4-PEG3)]2-PEG4-DBCO-FEA [PepSP1582]” it was “tight rhDLL3-Fc binders with a stable complex half-life”; in that of “[Ac-AETVEFWWCNGNSENWTCTW-GG-Ttds-K(Ttds-Ttds-PEG3)]2-PEG4-DBCO- [PepSP1583]”, “tight rhDLL3-Fc binders with a stable complex half-life”.
